Measurements taken from publication PMC11336835 (Heliyon, 2024).
In brackets after ≈: the same amount, converted by molar mass. Read-outs that look alike come from different tables or passages of the source. *1 amine or outer side, *2 acyl side, *3 side chain or, on linkers, in order; H or OH if unused. Where a SMILES comes first, the peptide text is derived from it. Bridges are numbered along the chain shown (N, C = ends). Roman numbers before positions name the chains, in order. [ ]: non-standard residue; d: D form. Actinocin(9to1) = Cc1c2oc3c(C)ccc(C(=O)[*:1])c3nc-2c(C(=O)[*:2])c(N)c1=O; NMeV = CN[C@H](C(=O)O)C(C)C; Sar = CNCC(=O)O

Tests used:
[1] = tested on: Mycobacterium smegmatis mc2155; assay: Resazurin reduction growth inhibition assay, M. smegmatis; type: cell-based; conditions: for IC50: Mycolicibacterium smegmatis, MC2155, growth inhibition, resazurin, means ± SEM of triplicates, read-out: IC50 against Mycobacterium smegmatis
[2] = tested on: Mycobacterium bovis var BCG; assay: organism not typed; type: cell-based; conditions: for IC50: read-out: IC50 against Mycobacterium bovis var BCG
[3] = tested on: Mycobacterium tuberculosis H37Rv; assay: Resazurin reduction growth inhibition assay, M. tuberculosis H37Rv; type: cell-based; conditions: for IC50: Mycobacterium tuberculosis, H37RV, read-out: IC50 against Mycobacterium tuberculosis H37Rv; for IC50 / IC50 against Mycobacterium tuberculosis H37Rv: means ± SEM of triplicates
Bacillus subtilis = assay: Antimicrobial spectrum assay, Bacillus subtilis; type: cell-based; conditions: for IC50: Bacillus subtilis, read-out: IC50 against Bacillus subtilis
Staphylococcus aureus = assay: Antimicrobial spectrum assay, Staphylococcus aureus; type: cell-based; conditions: for IC50: Staphylococcus aureus, read-out: IC50 against Staphylococcus aureus
Salmonella enterica = assay: Antimicrobial spectrum assay, Salmonella enterica; type: cell-based; conditions: ND = no inhibition detected at maximum concentration tested (100 μg/mL)
Shikimate kinase (MtSK) = target: T1, Shikimate kinase (MtSK) (Mycobacterium tuberculosis, UniProt P9WPY3); assay: Recombinant MtSK inhibition, ADP coupling assay; type: biochemical, M. tuberculosis; conditions: for IC50: read-out: Inhibition Concentration (IC50), MtSK (converted); for Ki: read-out: inhibition constant (Ki), MtSK (converted)
T1 construct: made in house; host or cells: E. coli
Procedure: In this study, we conducted enzymatic assays to assess the inhibition of the pure compound isolated in this experiment. We also assayed control and standard drugs (rifampicin and actinomycin D). At this time, we focused on three essential enzymes in M. tuberculosis: Shikimate kinase (MtSK), phosphopantothenoylcysteine synthetase phosphopantothenoylcysteine decarboxylase (MtCoABC), and 5-enolpyruvylshikimate-3-phosphate synthase (MtEPSPS), based on docking results. All these enzymes were prepared as recombinant proteins expressed in E. coli (details not included in this study or unpublished data). For the MtSK inhibition assessment, we quantified the production of ADP in the reaction using a coupling assay, as previously described. In the case of MtCoABC and MtEPSPS inhibition, we employed a pyrophosphate assay with the BIOMOL® Green reagent (Enzo Life Sciences). All assays were conducted on a 96-well plate format, with each well having a final volume of 50 μL.

[4] = Solubility of the purified compound in solvents; type: physicochemical; conditions: qualitative
in vitro = conditions: human, DLD-1 colorectal adenocarcinoma cells
Procedure: The cytotoxicity assay involved the evaluation of cytotoxic effects on human cells using the colorectal adenocarcinoma cell line (DLD-1). The DLD-1 cells were cultured in a 75 cm^2 flask (Violamo) at 37 °C, with Roswell Park Memorial Institute (RPMI 1640) medium supplemented with 10 % FBS, 2.1 mM stable Glutamine, and 2.0 g/L NaHCO3. DLD-1 cells in a semiconfluent state were detached from the flask by incubating them with 5 mL of RPMI 1640 containing 0.25 % trypsin-EDTA to conduct the assay. After detachment, the DLD-1 cells were resuspended in RPMI 1640 supplemented with FBS, L-glutamine, and NaHCO3, and their cell viability was assessed using 0.4 % Trypan blue on a hemocytometer. Approximately 100 μL of the cell suspension, containing 3,000 cells, was added to each well of a 96-well clear-bottom plate. Cells were dispensed into the wells containing 2 μL of compounds dissolved in 50 % DMSO (final compound concentrations: 100, 20, 4, 0.8, and 0.2 μM and final DMSO concentration was 1 % each well). The culture plate was then incubated at 37 °C under 5 % CO2. Following 48 h of cultivation, 10 μL of Cell Counting Kit 8 (Dojindo, Japan) was added to each well, and the plates were further incubated for 2 h to examine cell growth and survival. The absorbance at 450 nm wavelength was measured using a microplate reader. The assay was conducted in triplicate for each dilution.

T1 sequence (P9WPY3 whole entry): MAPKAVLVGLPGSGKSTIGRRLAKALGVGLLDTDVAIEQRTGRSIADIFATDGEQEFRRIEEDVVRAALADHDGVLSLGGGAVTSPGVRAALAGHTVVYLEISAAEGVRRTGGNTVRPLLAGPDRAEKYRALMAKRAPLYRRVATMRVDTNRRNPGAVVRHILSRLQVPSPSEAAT

Compound: Cc1c2oc3c(C)ccc(C(=O)N[C@@H]4C(=O)N[C@H](C(C)C)C(=O)N5CCC[C@H]5C(=O)N(C)CC(=O)N(C)[C@@H](C(C)C)C(=O)O[C@@H]4C)c3nc-2c(C(=O)N[C@@H]2C(=O)N[C@H](C(C)C)C(=O)N3CCC[C@H]3C(=O)N(C)CC(=O)N(C)[C@@H](C(C)C)C(=O)O[C@@H]2C)c(N)c1=O [Actinomycin D, actinomycin D] (I: T[dV]P[Sar][NMeV] / II: T[dV]P[Sar][NMeV]; ester I:1-I:C, II:1-II:C; linker I:N-II:N via Actinocin(9to1))
- IC50 against Mycobacterium smegmatis [1]: 0.78 ± 0.21 µg/mL (≈ 0.621 µM)
- IC50 against Mycobacterium bovis var BCG [2]: 0.8 ± 0.09 µg/mL (≈ 0.637 µM)
- IC50 ([3]; […]): 0.8 ± 0.12 µg/mL (≈ 0.637 µM)
- IC50 against Bacillus subtilis (Bacillus subtilis): <0.3 µg/mL
- IC50 against Staphylococcus aureus (Staphylococcus aureus): <0.3 µg/mL
- IC50 against Salmonella enterica (Salmonella enterica): 14.65 ± 1.22 µg/mL (≈ 11.7 µM)
- IC50 (Salmonella enterica; Salmonella enterica, read-out: IC50 against Salmonella enterica): 14.7 µg/mL (≈ 11.7 µM)
- IC50 (Shikimate kinase (MtSK)): 71.6 µM
- Ki (Shikimate kinase (MtSK)): 94.9 µM

Compound: Cc1c2oc3c(C)ccc(C(=O)N[C@@H]4C(=O)N[C@H](C(C)C)C(=O)N5CCC[C@H]5C(=O)N(C)CC(=O)N(C)[C@@H](C(C)C)C(=O)O[C@@H]4C)c3nc-2c(C(=O)N[C@@H]2C(=O)N[C@H](C(C)C)C(=O)N3CCC[C@H]3C(=O)N(C)CC(=O)N(C)[C@@H](C(C)C)C(=O)O[C@@H]2C)c(N)c1=O [F5(23), actinomycin D] (I: T[dV]P[Sar][NMeV] / II: T[dV]P[Sar][NMeV]; ester I:1-I:C, II:1-II:C; linker I:N-II:N via Actinocin(9to1))
- IC50 [1]: 0.74 ± 0.03 µg/mL (≈ 0.589 µM)
- increase in potency against M. bovis compared to actinomycin D [2]: 10 fold
- IC50 [2]: 0.02 ± 0.01 µg/mL (≈ 0.0159 µM)
- increase in potency against M. tuberculosis compared to actinomycin D [3]: 10 fold
- IC50 ([3]; growth inhibition, resazurin): 0.07 ± 0.009 µg/mL (≈ 0.0558 µM)
- potency against M. tuberculosis compared to rifampicin ([3]; greater effect than rifampicin): ~10 fold
- IC50 (Bacillus subtilis): < 0.3 µg/mL
- IC50 (Staphylococcus aureus): < 0.3 µg/mL
- IC50 against Salmonella enterica (Salmonella enterica): no inhibitory effect
- IC50 (Shikimate kinase (MtSK); recombinant enzyme): 32.8 µM
- Ki (Shikimate kinase (MtSK); recombinant enzyme): 46.2 µM
- solubility in solvents [4]: soluble in dichloromethane, chloroform, methanol, ethyl acetate and DMSO
- IC50 at 48 h (in vitro): > 80 µg/mL

Compound: CO[C@H]1/C=C/O[C@@]2(C)Oc3c(C)c(O)c4c(O)c(c(/C=N/N5CCN(C)CC5)c(O)c4c3C2=O)NC(=O)/C(C)=C\C=C\[C@H](C)[C@H](O)[C@@H](C)[C@@H](O)[C@@H](C)[C@H](OC(C)=O)[C@@H]1C [Rifampicin]
- IC50 [1]: 0.48 ± 0.07 µg/mL (≈ 0.583 µM)
- IC50 [2]: < 0.03 µg/mL
- IC50 against Mycobacterium tuberculosis H37Rv ([3]; growth inhibition, resazurin): <0.01 µg/mL
- IC50 against Mycobacterium tuberculosis H37Rv ([3]; growth inhibition, resazurin, listed as rifampicin): 0.8 ± 0.12 µg/mL (≈ 0.972 µM)
- IC50 (Bacillus subtilis): < 0.3 µg/mL
- IC50 (Staphylococcus aureus): < 0.3 µg/mL
